Measured values published in patent US20230002367A1, “BIFUNCTIONAL COMPOUNDS” (Hoffmann-La Roche Inc., priority 2019, published 2023).

Target: T1, SMARCA2 (Homo sapiens, UniProt P51531)
T1 construct: endogenous in cells
Assay: SMARCA2 HiBiT degradation assay (cellular)
Assay type: cell-based
Details: for Emax: A549, Emax = amount of residual protein remaining in the cell following compound treatment; for DC50: SMARCA2 HiBiT cells, luminescence readout, 11-point titration from 10 μM, 6 hours or 16 hours, read-out: HiBit A549 SMARCA2 IP

T1 sequence (P51531 whole entry): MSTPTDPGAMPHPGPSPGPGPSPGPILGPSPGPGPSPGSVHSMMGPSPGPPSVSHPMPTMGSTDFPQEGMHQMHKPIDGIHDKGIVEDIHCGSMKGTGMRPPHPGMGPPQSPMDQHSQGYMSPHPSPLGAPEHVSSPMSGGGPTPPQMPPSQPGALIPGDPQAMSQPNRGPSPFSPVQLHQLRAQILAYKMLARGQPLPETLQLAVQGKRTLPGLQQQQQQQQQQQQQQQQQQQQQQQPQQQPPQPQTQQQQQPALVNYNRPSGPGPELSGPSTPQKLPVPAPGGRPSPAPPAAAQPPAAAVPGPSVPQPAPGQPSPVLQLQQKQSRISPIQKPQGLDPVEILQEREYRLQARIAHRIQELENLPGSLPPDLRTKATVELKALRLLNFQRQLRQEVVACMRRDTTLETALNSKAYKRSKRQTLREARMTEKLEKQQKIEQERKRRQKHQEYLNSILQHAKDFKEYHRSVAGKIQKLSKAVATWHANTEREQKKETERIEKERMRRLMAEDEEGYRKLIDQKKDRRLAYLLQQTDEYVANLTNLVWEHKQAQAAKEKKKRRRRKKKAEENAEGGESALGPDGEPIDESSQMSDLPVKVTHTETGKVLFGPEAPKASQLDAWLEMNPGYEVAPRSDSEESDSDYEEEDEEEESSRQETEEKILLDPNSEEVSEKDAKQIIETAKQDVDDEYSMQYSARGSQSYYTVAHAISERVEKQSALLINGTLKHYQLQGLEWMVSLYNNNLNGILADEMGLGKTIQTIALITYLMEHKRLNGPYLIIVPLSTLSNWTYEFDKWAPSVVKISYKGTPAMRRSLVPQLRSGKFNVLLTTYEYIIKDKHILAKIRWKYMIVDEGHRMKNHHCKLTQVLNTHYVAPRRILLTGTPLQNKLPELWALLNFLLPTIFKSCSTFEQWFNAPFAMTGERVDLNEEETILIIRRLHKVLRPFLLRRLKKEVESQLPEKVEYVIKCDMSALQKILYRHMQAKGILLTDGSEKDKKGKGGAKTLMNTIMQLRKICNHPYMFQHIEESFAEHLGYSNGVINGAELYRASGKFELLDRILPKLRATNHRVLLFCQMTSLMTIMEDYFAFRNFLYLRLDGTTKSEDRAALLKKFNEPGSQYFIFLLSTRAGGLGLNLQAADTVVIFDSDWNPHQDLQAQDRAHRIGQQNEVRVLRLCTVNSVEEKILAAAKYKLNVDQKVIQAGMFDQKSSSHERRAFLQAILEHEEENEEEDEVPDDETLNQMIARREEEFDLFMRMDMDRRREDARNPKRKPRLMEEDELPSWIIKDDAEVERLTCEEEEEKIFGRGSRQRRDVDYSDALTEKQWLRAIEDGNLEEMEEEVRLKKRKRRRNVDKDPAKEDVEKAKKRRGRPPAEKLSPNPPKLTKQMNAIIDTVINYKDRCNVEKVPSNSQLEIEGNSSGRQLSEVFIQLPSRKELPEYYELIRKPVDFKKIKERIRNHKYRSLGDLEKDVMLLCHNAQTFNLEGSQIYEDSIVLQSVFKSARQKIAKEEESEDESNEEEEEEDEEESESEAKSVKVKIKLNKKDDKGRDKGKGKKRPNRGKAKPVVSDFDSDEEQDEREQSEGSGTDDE

Emax | DC50 | Structure (SMILES)
19% | 1010 nM | Cc1ncsc1-c1ccc([C@H](C)NC(=O)[C@@H]2C[C@@H](O)CN2C(=O)[C@@H](NC(=O)CCCCCC(=O)N(C)CC(COc2cc(-c3ccccc3O)nnc2N)c2ccccc2)C(C)(C)C)cc1 (mixture of isomers) [Example 21, N′-[3-[3-amino-6-(2-hydroxyphenyl)pyridazin-4-yl]oxy-2-phenyl-propyl]-N′-methyl-N-[rac-(1S)-2,2-dimethyl-1-[rac-(2S,4R)-4-hydroxy-2-[[rac-(1S)-1-[4-(4-methylthiazol-5-yl)phenyl]ethyl]carbamoyl]pyrrolidine-1-carbonyl]propyl]heptanediamide]
27% | 455 nM | Cc1ncsc1-c1ccc([C@H](C)NC(=O)[C@@H]2C[C@@H](O)CN2C(=O)[C@@H](NC(=O)CCCCCCCCCCC(=O)N(C)CC(COc2cc(-c3ccccc3O)nnc2N)c2ccccc2)C(C)(C)C)cc1 (mixture of isomers) [Example 22, N′-[3-[3-amino-6-(2-hydroxyphenyl)pyridazin-4-yl]oxy-2-phenyl-propyl]-N′-methyl-N-[rac-(1S)-2,2-dimethyl-1-[rac-(2S,4R)-4-hydroxy-2-[[rac-(1S)-1-[4-(4-methylthiazol-5-yl)phenyl]ethyl]carbamoyl]pyrrolidine-1-carbonyl]propyl]dodecanediamide]
38% | 428 nM | Cc1ncsc1-c1ccc([C@H](C)NC(=O)[C@@H]2C[C@@H](O)CN2C(=O)[C@@H](NC(=O)CCCCCCCCCCCCC(=O)N(C)CC(COc2cc(-c3ccccc3O)nnc2N)c2ccccc2)C(C)(C)C)cc1 (mixture of isomers) [Example 23, N′-[3-[3-amino-6-(2-hydroxyphenyl)pyridazin-4-yl]oxy-2-phenyl-propyl]-N′-methyl-N-[rac-(1S)-2,2-dimethyl-1-[rac-(2S,4R)-4-hydroxy-2-[[rac-(1S)-1-[4-(4-methylthiazol-5-yl)phenyl]ethyl]carbamoyl]pyrrolidine-1-carbonyl]propyl]tetradecanediamide]
42% | 2850 nM | Cc1ncsc1-c1ccc([C@H](C)NC(=O)[C@@H]2C[C@@H](O)CN2C(=O)[C@@H](NC(=O)CCOCCOCCC(=O)N(C)CC(COc2cc(-c3ccccc3O)nnc2N)c2ccccc2)C(C)(C)C)cc1 (mixture of isomers) [Example 24, rac-(2S,4R)-4-hydroxy-1-[rac-(2S)-2-[3-[2-[3-[[3-[3-amino-6-(2-hydroxyphenyl)pyridazin-4-yl]oxy-2-phenyl-propyl]-methyl-amino]-3-oxo-propoxy]ethoxy]propanoylamino]-3,3-dimethyl-butanoyl]-N-[rac-(1S)-1-[4-(4-methylthiazol-5-yl)phenyl]ethyl]pyrrolidine-2-carboxamide]
19% | 348 nM | Cc1ncsc1-c1ccc([C@H](C)NC(=O)[C@@H]2C[C@@H](O)CN2C(=O)[C@@H](NC(=O)CCCCCCCCC(=O)N(C)CC(COc2cc(-c3ccccc3O)nnc2N)c2ccccc2)C(C)(C)C)cc1 (mixture of isomers) [Example 25, N′-[3-[3-amino-6-(2-hydroxyphenyl)pyridazin-4-yl]oxy-2-phenyl-propyl]-N′-methyl-N-[rac-(1S)-2,2-dimethyl-1-[rac-(2S,4R)-4-hydroxy-2-[[rac-(1S)-1-[4-(4-methylthiazol-5-yl)phenyl]ethyl]carbamoyl]pyrrolidine-1-carbonyl]propyl]decanediamide]
60% | 1440 nM | Cc1ncsc1-c1ccc([C@H](C)NC(=O)[C@@H]2C[C@@H](O)CN2C(=O)[C@@H](NC(=O)CCCCCC(=O)N(C)CCCN(C)c2ccc(CCOc3cc(-c4ccccc4O)nnc3N)cc2)C(C)(C)C)cc1 (racemic) [Example 26, N′-[3-[4-[2-[3-amino-6-(2-hydroxyphenyl)pyridazin-4-yl]oxyethyl]-N-methyl-anilino]propyl]-N′-methyl-N-[rac-(1S)-2,2-dimethyl-1-[rac-(2S,4R)-4-hydroxy-2-[[rac-(1S)-1-[4-(4-methylthiazol-5-yl)phenyl]ethyl]carbamoyl]pyrrolidine-1-carbonyl]propyl]heptanediamide]
33% | 330 nM | Cc1ncsc1-c1ccc([C@H](C)NC(=O)[C@@H]2C[C@@H](O)CN2C(=O)[C@@H](NC(=O)CCCCCCCCCCC(=O)N(C)CCCN(C)c2ccc(CCOc3cc(-c4ccccc4O)nnc3N)cc2)C(C)(C)C)cc1 (racemic) [Example 27, N′-[3-[4-[2-[3-amino-6-(2-hydroxyphenyl)pyridazin-4-yl]oxyethyl]-N-methyl-anilino]propyl]-N′-methyl-N-[rac-(1S)-2,2-dimethyl-1-[rac-(2S,4R)-4-hydroxy-2-[[rac-(1S)-1-[4-(4-methylthiazol-5-yl)phenyl]ethyl]carbamoyl]pyrrolidine-1-carbonyl]propyl]dodecanediamide]
46% | 515 nM | Cc1ncsc1-c1ccc([C@H](C)NC(=O)[C@@H]2C[C@@H](O)CN2C(=O)[C@@H](NC(=O)CCCCCCCCC(=O)N(C)CCCN(C)c2ccc(CCOc3cc(-c4ccccc4O)nnc3N)cc2)C(C)(C)C)cc1 (racemic) [Example 28, N′-[3-[4-[2-[3-amino-6-(2-hydroxyphenyl)pyridazin-4-yl]oxyethyl]-N-methyl-anilino]propyl]-N′-methyl-N-[rac-(1S)-2,2-dimethyl-1-[rac-(2S,4R)-4-hydroxy-2-[[rac-(1S)-1-[4-(4-methylthiazol-5-yl)phenyl]ethyl]carbamoyl]pyrrolidine-1-carbonyl]propyl]decanediamide]
20% | 119 nM | Cc1ncsc1-c1ccc([C@H](C)NC(=O)[C@@H]2C[C@@H](O)CN2C(=O)[C@@H](NC(=O)CCCCCC(=O)N2CCN(c3ccc(N4CCCC(Oc5cc(-c6ccccc6O)nnc5N)C4)cc3)CC2)C(C)(C)C)cc1 (mixture of isomers) [Example 32, rac-(2S,4R)-4-hydroxy-1-[rac-(2S)-2-[[7-[4-[4-[3-[3-amino-6-(2-hydroxyphenyl)pyridazin-4-yl]oxy-1-piperidyl]phenyl]piperazin-1-yl]-7-oxo-heptanoyl]amino]-3,3-dimethyl-butanoyl]-N-[rac-(1S)-1-[4-(4-methylthiazol-5-yl)phenyl]ethyl]pyrrolidine-2-carboxamide]
22% | 73 nM | Cc1ncsc1-c1ccc([C@H](C)NC(=O)[C@@H]2C[C@@H](O)CN2C(=O)[C@@H](NC(=O)CCCCCCCCC(=O)N2CCN(c3ccc(N4CCCC(Oc5cc(-c6ccccc6O)nnc5N)C4)cc3)CC2)C(C)(C)C)cc1 (mixture of isomers) [Example 33, rac-(2S,4R)-4-hydroxy-1-[rac-(2S)-2-[[10-[4-[4-[3-[3-amino-6-(2-hydroxyphenyl)pyridazin-4-yl]oxy-1-piperidyl]phenyl]piperazin-1-yl]-10-oxo-decanoyl]amino]-3,3-dimethyl-butanoyl]-N-[rac-(1S)-1-[4-(4-methylthiazol-5-yl)phenyl]ethyl]pyrrolidine-2-carboxamide]
47% | 1100 nM | Cc1ncsc1-c1ccc([C@H](C)NC(=O)[C@@H]2C[C@@H](O)CN2C(=O)[C@@H](NC(=O)CCOCCOCCC(=O)N2CCN(c3ccc(N4CCCC(Oc5cc(-c6ccccc6O)nnc5N)C4)cc3)CC2)C(C)(C)C)cc1 (mixture of isomers) [Example 34, rac-(2S,4R)-4-hydroxy-1-[rac-(2S)-2-[3-[2-[3-[4-[4-[3-[3-amino-6-(2-hydroxyphenyl)pyridazin-4-yl]oxy-1-piperidyl]phenyl]piperazin-1-yl]-3-oxo-propoxy]ethoxy]propanoylamino]-3,3-dimethyl-butanoyl]-N-[rac-(1S)-1-[4-(4-methylthiazol-5-yl)phenyl]ethyl]pyrrolidine-2-carboxamide]
